Assay results reported in US20100069248A1, “HERBICIDE COMBINATION COMPRISING DIMETHOXYTRIAZINYL SUBSTITUTED DIFLUOROMETHANESULFONYLANILIDES” (BAYER CROPSCIENCE AG, priority 2008, published 2010).

What was measured:
Format in all cases: in vivo
[1] = test system: Stellaria media (STEME); assay: Post-emergence action against weeds, greenhouse pots, visual scoring; conditions: 10 DAT
Method: (§1) Seeds or rhizome pieces of mono- and dicotyledonous harmful and useful plants were placed in peat pots (diameter 4 cm) filled with sandy loam and then covered with soil. The pots were kept in a greenhouse under optimum conditions. In addition, harmful plants encountered in paddy rice cultivation were cultivated in pots with a water level 2 cm above the soil surface.
(§2) About three weeks after the start of the cultivation, the test plants were treated at the 2- to 3-leaf stage. The herbicides, formulated as powder or liquid concentrates, were, either alone or in the combinations according to the invention, sprayed in various dosages on to the green parts of the plants using an application rate of 600 l of water/ha (converted). For further cultivation of the plants, the pots were then again kept under optimum conditions in a greenhouse.
(§3) The visual scoring of the herbicidal effects was carried out in intervals up to 21 days after the treatment. Scoring was carried out in percent in comparison to the untreated control plants. 0%=no herbicidal activity, 100%=complete herbicidal activity=complete kill.
(§4) The percentages from the treatments with the herbicides alone (=individual application) and with the combinations according to the invention (=mixtures) were employed to calculate interactions using the method of Colby. When the observed efficacies of the mixtures exceed the formal sum of the values of the tests with individual applications, they also exceed the expected value according to Colby, which is calculated using the formula below (cf. S. R. Colby; in Weeds 15 (1967) pp. 20 to 22):
(§5) • A, B=activity of components A and B in percent at a dosage of a and b g of ai/ha (=gramm of active substance per hectare), respectively. • E=expected value in % at a dosage of a+b g of ai/ha.

[2] = test system: Alopecurus myosuroides (ALOMY); assay: as above
Method: as §1, §2, §3, §4, §5

[3] = test system: Cyperus esculentus (CYPES); assay: as above; conditions: 21 DAT
Method: as §1, §2, §3, §4, §5

[4] = test system: Lolium multiflorum (LOLMU); assay: as above
Method: as §1, §2, §3, §4, §5

[5] = test system: Setaria viridis (SETVI); assay: as above; conditions: 21 DAT
Method: as §1, §2, §3, §4, §5

[6] = test system: Zea mays (ZEAMX); assay: Post-emergence action, greenhouse pots, visual scoring; conditions: component B 60 g of ai/ha
Method: as §1, §2, §3, §4, §5

[7] = test system: Amaranthus retroflexus (AMARE); assay: Post-emergence action against weeds, greenhouse pots, visual scoring; conditions: 21 DAT, component B 60 g of ai/ha
Method: as §1, §2, §3, §4, §5

[8] = test system: Avena fatua (AVEFA); assay: as above; conditions: 21 DAT, component B 60 g of ai/ha
Method: as §1, §2, §3, §4, §5

[9] = test system: Fallopia (ex Polygonum) convolvulus (POLCO); assay: as above; conditions: 21 DAT
Method: as §1, §2, §3, §4, §5

[10] = test system: Matricaria inodora (MATIN); assay: as above; conditions: 21 DAT
Method: as §1, §2, §3, §4, §5

[11] = test system: Viola tricolor (VIOTR); assay: as above
Method: as §1, §2, §3, §4, §5

[12] = test system: Triticum aestivum (TRZAS); assay: Post-emergence action, greenhouse pots, visual scoring; conditions: 10 DAT, component B 180 g of ai/ha
Method: as §1, §2, §3, §4, §5

[13] = 21 DAT, component B 60 g of ai/ha
[14] = 21 DAT, component B 180 g of ai/ha
[15] = 10 DAT, component B 60 g of ai/ha
[16] = 10 DAT, component B 180 g of ai/ha

COc1nc(OC)nc(C(=O)c2cccc(F)c2N(C)S(=O)(=O)C(F)F)n1 [A-1]
% activity found ([1]; component A 4 g of ai/ha): 70% | % activity found ([1]; component A 12 g of ai/ha): 70%

COc1c(Cl)ccc(Cl)c1C(=O)O [B1-1, 3,6-dichloro-2-methoxybenzoic acid]
% activity found [2, 13]: 0% | % activity found [2, 14]: 0% | % activity found ([3]; component B 60 g of ai/ha): 0% | % activity found ([3]; component B 180 g of ai/ha): 0% | % activity found [4, 15]: 0% | % activity found [4, 16]: 10% | % activity found [4, 13]: 0% | % activity found ([5]; component B 60 g of ai/ha): 0% | % activity found ([5]; component B 180 g of ai/ha): 20% | % activity found ([6]; 10 DAT): 0%

O=C(O)c1c(Cl)ccc2cc(Cl)cnc12 [B3-1, 3,7-dichloro-8-quinolinecarboxylic acid]
% activity found [2, 15]: 0% | % activity found [2, 16]: 0% | % activity found [2, 13]: 0% | % activity found [2, 14]: 0% | % activity found [7]: 40% | % activity found [8]: 0% | % activity found ([3]; component B 60 g of ai/ha): 0% | % activity found ([3]; component B 180 g of ai/ha): 0% | % activity found ([9]; component B 60 g of ai/ha): 0% | % activity found ([9]; component B 180 g of ai/ha): 0% | % activity found [4, 15]: 0% | % activity found [4, 16]: 0% | % activity found ([10]; component B 60 g of ai/ha): 0% | % activity found ([10]; component B 180 g of ai/ha): 0% | % activity found ([1]; component B 60 g of ai/ha): 10% | % activity found [11, 16]: 20% | % activity found [11, 13]: 40% | % activity found [12]: 0% | % activity found ([6]; 10 DAT): 0% | % activity found ([6]; 21 DAT): 0%
